Common to all, as to format: cell-based
Test [1] concerns the target T1, human GLP-1R (Homo sapiens, UniProt P43220).
T1 construct: Plasmids encoding full length, wild-type human or mouse GLP-1R, GIPR or glucagon receptor (GCGR) in the pcDNA5/FRT vector; host or cells: AD-293
Nature of the test: HTRF cAMP assay in transiently transfected AD-293 cells. The note with it: 30 min stimulation, n = 3–5. How it is done:
(§1) AD-293 cells were transfected with desired plasmid DNA 24 h prior to cAMP quantification using the cAMP-Gs Dynamic 2 kit (Cisbio, France), as per manufacturer's protocol. Full details are provided in the supplementary methods.
(§2) AD-293 cells were added to a 12-well plate and maintained in 2 ml complete DMEM. 1 μg of specified plasmid DNA was added to each well alongside Lipofectamine 2000 (Thermo Fisher, UK). cAMP production was quantified 24 hours following transfection using homogenous time resolved fluorescence (HTRF), specifically the cAMP-Gs Dynamic 2 kit (Cisbio, France). Peptides and cells were diluted in DMEM + 1% P/S + 0.1% BSA. For peptide stability testing, cells, fresh peptide and peptide incubated with dispersed islet cells were diluted in RPMI-1640 (Thermo Fisher, UK) + 10% FBS + 1% P/S. 10 μl of peptide and 10 μl of cell suspension were added in duplicate to an opaque 96-well plate (Grenier Bio-One, Austria) and incubated at 37°C for 30 minutes. 10 μl of cAMP-d2 and anti-cAMP cryptate, both diluted in lysis buffer, were added in quick succession as per the manufacturer’s protocol. The plates were then incubated at room temperature for 45 minutes and read using the SpectraMax i3x (Molecular Devices, US).
(In general: TR-FRET usually uses a lanthanide donor and a delayed reading to cut background.)

Test [2] has as its target T2, human GCGR (Homo sapiens, UniProt P47871).
T2 construct: Plasmids encoding full length, wild-type human or mouse GLP-1R, GIPR or glucagon receptor (GCGR) in the pcDNA5/FRT vector; host or cells: AD-293
Described as above. The note with it: 30 min stimulation, n = 3–5. How it is done: as §1, §2

Test [3] deals with T3, mouse GCGR (Mus musculus, UniProt Q61606).
T3 construct: Plasmids encoding full length, wild-type human or mouse GLP-1R, GIPR or glucagon receptor (GCGR) in the pcDNA5/FRT vector; host or cells: AD-293
T3 sequence (Q61606 27-485): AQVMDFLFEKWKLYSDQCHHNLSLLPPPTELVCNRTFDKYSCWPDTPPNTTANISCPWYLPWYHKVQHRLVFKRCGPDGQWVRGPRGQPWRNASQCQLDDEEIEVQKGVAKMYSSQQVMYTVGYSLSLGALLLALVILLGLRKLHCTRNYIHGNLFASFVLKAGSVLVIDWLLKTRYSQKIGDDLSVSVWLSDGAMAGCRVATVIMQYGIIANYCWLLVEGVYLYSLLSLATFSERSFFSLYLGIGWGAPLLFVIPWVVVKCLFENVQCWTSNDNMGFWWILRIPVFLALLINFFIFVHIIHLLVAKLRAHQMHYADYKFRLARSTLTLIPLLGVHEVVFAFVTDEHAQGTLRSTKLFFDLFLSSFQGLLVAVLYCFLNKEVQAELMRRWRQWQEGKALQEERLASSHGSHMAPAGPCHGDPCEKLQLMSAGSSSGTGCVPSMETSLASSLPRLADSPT
The description is as above. The note with it: 30 min stimulation, n = 3–5. How it is done:
as §1, §2

For test [4], the target named is T4, mouse GLP-1R (Mus musculus, UniProt O35659).
T4 construct: Plasmids encoding full length, wild-type human or mouse GLP-1R, GIPR or glucagon receptor (GCGR) in the pcDNA5/FRT vector; host or cells: AD-293
T4 sequence (O35659 22-463): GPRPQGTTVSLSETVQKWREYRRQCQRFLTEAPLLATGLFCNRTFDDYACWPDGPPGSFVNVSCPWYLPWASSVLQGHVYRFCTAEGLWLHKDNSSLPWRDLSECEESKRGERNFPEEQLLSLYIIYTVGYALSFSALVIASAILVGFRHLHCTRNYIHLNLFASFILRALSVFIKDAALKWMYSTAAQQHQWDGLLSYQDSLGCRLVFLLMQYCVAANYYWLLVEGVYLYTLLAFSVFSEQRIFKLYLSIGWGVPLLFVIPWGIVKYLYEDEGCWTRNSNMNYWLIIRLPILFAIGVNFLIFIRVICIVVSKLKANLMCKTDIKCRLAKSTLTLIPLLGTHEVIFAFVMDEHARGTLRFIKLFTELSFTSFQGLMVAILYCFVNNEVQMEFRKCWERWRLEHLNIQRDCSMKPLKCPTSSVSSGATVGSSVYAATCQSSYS
The test is described as above. The note with it: 30 min stimulation, n = 3–5. How it is done:
as §1, §2

For test [5], the target named is T5, SNAP-tagged mouse GLP-1R (Mus musculus, UniProt O35659).
T5 construct: host or cells: AD-293
T5 sequence (O35659 22-463): T4 sequence (O35659 22-463)
Nature of the test: Internalisation and receptor surface expression assays in AD-293 cells. The note with it: 10 nM. How it is done: AD-293 cells were transfected with desired plasmid DNA encoding a SNAP-tagged G-protein coupled receptor (GPCR) 24 h prior to assay. For 1 h internalisation assays, cells were labelled for 10 min with cleavable SNAP-tag probe BG-S-S-649 (New England BioLabs, US). Following 1 h treatment with specified peptide, cells were imaged at baseline and after addition of 2-mercaptoethane sulfonate (Mesna). For 4-hour GPCR surface expression assays, cells were treated with the specified peptide for 4 h, prior to 10-minute labelling with BG-S-S-649 and imaging. Full details are provided in the supplementary methods.
AD-293 cells were added to a 96-well plate and maintained in 200 μl complete DMEM. 150 ng of mouse or human SNAP-tagged plasmid GIPR DNA, or 100 ng of mouse or human SNAP-tagged plasmid GLP-1R DNA was added to each well alongside Lipofectamine 2000 (Thermo Fisher, UK) and left for 24 hours.
For 1 hour internalisation assays, cells were labelled with cleavable SNAP-tag probe BG-S-S-649 (New England BioLabs, US) in complete DMEM for 10 minutes prior to washing and 1 hour treatment with specified peptide, reconstituted in DMEM + 0.1% BSA. […] GPCR internalisation was quantified as the cell fluorescence following Mesna addition (representing internalised GPCR), corrected for the baseline cell fluorescence (representing total cellular GPCR). […]

T2 sequence (P47871 26-477): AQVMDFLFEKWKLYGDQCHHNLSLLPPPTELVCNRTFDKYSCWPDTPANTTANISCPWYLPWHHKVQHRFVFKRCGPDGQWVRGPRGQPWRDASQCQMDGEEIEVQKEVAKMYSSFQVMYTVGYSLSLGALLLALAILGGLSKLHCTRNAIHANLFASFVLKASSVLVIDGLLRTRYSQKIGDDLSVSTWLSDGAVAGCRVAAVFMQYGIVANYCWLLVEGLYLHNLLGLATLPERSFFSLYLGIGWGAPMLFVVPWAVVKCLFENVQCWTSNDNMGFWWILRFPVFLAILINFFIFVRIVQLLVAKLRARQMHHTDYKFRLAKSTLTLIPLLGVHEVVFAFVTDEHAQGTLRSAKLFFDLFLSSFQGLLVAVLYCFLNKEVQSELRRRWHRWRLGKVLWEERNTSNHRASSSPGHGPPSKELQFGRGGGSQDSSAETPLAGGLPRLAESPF
T1 sequence (P43220 24-463): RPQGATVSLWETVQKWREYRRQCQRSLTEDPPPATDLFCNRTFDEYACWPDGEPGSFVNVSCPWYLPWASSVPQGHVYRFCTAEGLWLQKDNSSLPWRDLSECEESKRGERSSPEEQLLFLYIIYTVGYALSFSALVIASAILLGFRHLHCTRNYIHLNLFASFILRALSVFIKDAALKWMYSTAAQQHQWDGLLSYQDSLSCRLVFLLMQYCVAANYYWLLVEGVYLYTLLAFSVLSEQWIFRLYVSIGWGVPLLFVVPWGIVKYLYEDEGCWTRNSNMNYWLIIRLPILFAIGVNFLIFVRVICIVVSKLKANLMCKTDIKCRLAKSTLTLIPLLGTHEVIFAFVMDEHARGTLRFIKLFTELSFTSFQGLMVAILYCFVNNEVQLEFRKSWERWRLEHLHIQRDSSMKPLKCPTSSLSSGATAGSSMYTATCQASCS

For `CC[C@H](C)[C@H](NC(=O)[C@H](CO)NC(=O)[C@H](Cc1ccc(O)cc1)NC(=O)[C@H](CC(=O)O)NC(=O)[C@H](CO)NC(=O)[C@@H](NC(=O)[C@H](Cc1ccccc1)NC(=O)[C@@H](NC(=O)CNC(=O)[C@H](CCC(=O)O)NC(=O)C(C)(C)NC(=O)[C@@H](N)Cc1ccc(O)cc1)[C@@H](C)O)[C@@H](C)CC)C(=O)N[C@@H](C)C(=O)N[C@@H](CC(C)C)C(=O)N[C@@H](CC(=O)O)C(=O)N[C@@H](CCCCN)C(=O)N[C@H](C(=O)N[C@@H](Cc1c[nH]cn1)C(=O)N[C@@H](CCC(N)=O)C(=O)N[C@@H](CCC(N)=O)C(=O)N[C@@H](CC(=O)O)C(=O)N[C@@H](Cc1ccccc1)C(=O)N[C@H](C(=O)N[C@@H](CC(N)=O)C(=O)N[C@@H](Cc1c[nH]c2ccccc12)C(=O)N[C@@H](CC(C)C)C(=O)N[C@@H](CC(C)C)C(=O)N[C@@H](C)C(=O)N[C@@H](CCC(N)=O)C(=O)N[C@@H](CCCCN)C(=O)NCC(=O)N[C@@H](CCCCNC(=O)CC[C@H](NC(=O)CCCCCCCCCCCCCCCCCCC(=O)O)C(=O)O)C(=O)N[C@@H](CCCCN)C(=O)N[C@@H](CC(N)=O)C(=O)N[C@@H](CC(=O)O)C(=O)N[C@@H](Cc1c[nH]c2ccccc12)C(=O)N[C@@H](CCCCN)C(=O)N[C@@H](Cc1c[nH]cn1)C(=O)N[C@@H](CC(N)=O)C(=O)N[C@H](C(=O)N[C@H](C(=O)N[C@@H](CCC(N)=O)C(=O)O)[C@@H](C)O)[C@@H](C)CC)C(C)C)[C@@H](C)CC` [GIP108], the “cAMP activation of human GLP-1R” value in test [1] is reported as “minimal activation”. For the same compound, in test [2], the “cAMP activation of human GCGR” value is “minimal activation”. The “cAMP activation of mouse GCGR” value in test [3] is “minimal activation”. In addition, in test [4], the “cAMP activation of mouse GLP-1R” value is recorded as “minimal activation”.
For GLP-1(7–36)·NH2, in test [5] (1-hour treatment, n = 3–4), the “receptor internalisation compared to vehicle” value was “significantly increased both mouse and human GLP-1R internalisation”. For the same compound, the “receptor internalisation (surface expression) compared to vehicle” value in test [5] (4-hours treatment, n = 7–8) is “significantly increased both mouse and human GLP-1R internalisation”.

These data come from article PMC11786100, “Chronic GIPR agonism results in pancreatic islet GIPR functional desensitisation” (Molecular Metabolism, 2025).
